# From paper PMC11677527, “Predicting Pharmacokinetics of Active Constituents in Spatholobi caulis by Using Physiologically Based Pharmacokinetic Models” (Pharmaceuticals, 2024)
# Where two headings read alike, the source gives them in different places.
# Legend:
# [1] = Observed pharmacokinetics in rats after oral SPC (previous study); type: in vivo, rat; conditions: p.o. SPC
# [2] = Verification pharmacokinetic experiment in rats, SPC 60 g crude drug/kg by gavage, UFLC-MS/MS, DAS 2.0; type: in vivo, rat
# Description: To validate the accuracy of PBPK models in predicting the pharmacokinetics of SPC constituents at different oral doses, the pharmacokinetic behavior of these four constituents from SPC in rats were analyzed by UFLC-MS/MS. The parameters were calculated using Drug and Statistics Software version 2.0, and then these validated values (Val.) were used to check the accuracy of the Calc. values and evaluated by FE.
# The pharmacokinetic fitting results of rats given 60 g crude drug/kg body weight of SPC by gavage were verified by experiments. The verification experiment was conducted according to our previous pharmacokinetic study. In brief, 1.5 mL suspension of SPC was given to rats by oral administration; 300 μL blood samples from orbital venous at 0.083, 0.25, 0.5, 0.75, 1.0, 1.5, 2, 3, 4, 6, 8, and 12 h were collected and pretreated with heparin sodium. After centrifugation, the plasma samples were obtained and further processed for subsequent detection by UFLC-MS/MS; the detailed analysis method is shown in Supplementary Data (Table S1 and Figure S1). The concentration-time curve of each compound was gained, and the pharmacokinetic parameters were calculated using DAS 2.0 software (DAS 2.0, Mathematical Pharmacology Professional Committee of China, Shanghai, China). The results of these four constituents were compared with the PBPK parameters predicted in rats at an oral dose of 60 g crude drug/kg body weight of SPC.
# 1. The instrument and analytical conditions of UFLC-MS/MS method
# 4 constituents (1. 3′-methoxydadizein; 2. 8-O-methylretusin; 3. Daidzin; and 4. […]
# The internal standard (IS) carbamazepine with a purity of more than 99 % was purchased from Beijing JK-chemical technology Co. Ltd., (Beijing China). Heparin sodium was gained from Tianjin biochemical pharmaceutical Co. Ltd, (Tianjin, China).
# Ammonium acetate of HPLC grade, methanol and acetonitrile of LC-MS grade were purchased from Sigma (LOT# BCBK6717V, sigma-aldrich, Co., MO, USA) and Fisher (Fisher Corp., Fair lawn, NJ, USA) respectively. The experimental ultrapure water was prepared by Millipore Milli-Q ultrapure water preparation apparatus (Millipore Sigma, […]
# The detailed information of Shimadzu UFLC-MS/MS 8050 liquid mass system equipped with Nexera X2UFLC liquid chromatography system and 8050 triple quadrupole mass spectrometers with an electrospray ionization source were listed in our previous study. The supporting LabSolution workstation was used for data […]
# The separation without superposition of analytes in plasma sample was achieved on a Kinetex® C18 chromatographic column (100mm×2.1mm i.d.; 2.6 μm, 100 Å; Phenomenex, Inc., Torrance, CA, USA) assembled with a Phenomenex p/n AJ0-9000 C18 protection column. The mobile phase was consisted of 0.5 mM ammonium acetate in water (A) and ACN (B). The gradient elution program was selected ultimately as […]
# 95 % B (18.7–22 min). Column and automatic sampler temperature were set as 30 °C and 4 °C respectively. The flow rate of mobile phase was 0.35 mL/min while sample injection volume was 4 μL.
# Multiple reaction monitoring (MRM) of positive or negative modes were used as scanning modes for the analytes and IS. Other essential parameters were successively optimized as: Nebulizing gas flow, 3 L/min; Heating gas flow, 10 L/min; Drying gas flow, 10 L/min; Interface temperature, 300 °C; DL temperature, 250 °C; Interface and detector voltage were each set as 3.0 kV and 1.8 kV. The detection parameters such as retention time (RT), dwell time (DT), quadrupole 1 pre-rod bias (Q1), collision energy […]
# Table S1 The retention time and ion equivalent parameters of 4 constituents in rat […]
# Constituents Retention Precursor Precursor Product time Pre energy Pre time (min) ion species ion ion (msec) Bias (V) Bias
# Caco-2 cell monolayer = tested on: Caco-2 cell monolayer; parameters: method as in PMID 36680806, PMID 26501241; conditions: Caco-2 cell monolayer model; cited from earlier work
# [3] = parameters: method as in PMID 34303214; conditions: rats, p.o. SPC 30 g crude drug/kg; doses of 1-4: 0.062, 0.11, 0.71, 1.31 mg/kg; cited from earlier work
# [4] = compartment model parameters, DAS 2.0, rats p.o. SPC 60 g crude drug/kg, Mean, 5 rats
# [5] = statistical moment parameters, DAS 2.0, rats p.o. SPC 60 g crude drug/kg, Mean, 5 rats
# [6] = statistical moment parameters, DAS 2.0, rats p.o. SPC 60 g crude drug/kg, Mean, 5 rats, in µg·h²/mL
smiles,measurement,setting,value
"COc1cc(-c2coc3cc(O)ccc3c2=O)ccc1O [Constituent 1, 3′-methoxydadizein]",time of slight secondary absorption peak,[1],6 h
same,K10,[2]; [4],0.474 h⁻¹
same,K12,[2]; [4],0.207 h⁻¹
same,K21,[2]; [4],0.135 h⁻¹
same,Ka,[2]; [4],4.239 h⁻¹
same,Tlag,[2]; [4],0 h
same,V1/F,[2]; [4],12.821 L/kg
same,t1/2Ka,[2]; [4],0.185 h
same,t1/2α,[2]; [4],1.009 h
same,concentration at 0.083 h,"[2]; rat, plasma, oral, time 0.083 h, rats p.o. SPC 60 g crude drug/kg, doses of 1-4: 0.124, 0.22, 1.4, 2.62 mg/kg, 5 rats",2.98 ng/mL
same,concentration at 0.25 h,"[2]; rat, plasma, oral, time 0.25 h, rats p.o. SPC 60 g crude drug/kg, doses of 1-4: 0.124, 0.22, 1.4, 2.62 mg/kg, 5 rats",5.52 ng/mL
same,concentration at 0.5 h,"[2]; rat, plasma, oral, time 0.5 h, rats p.o. SPC 60 g crude drug/kg, doses of 1-4: 0.124, 0.22, 1.4, 2.62 mg/kg, 5 rats",7.09 ng/mL
same,concentration at 0.75 h,"[2]; rat, plasma, oral, time 0.75 h, rats p.o. SPC 60 g crude drug/kg, doses of 1-4: 0.124, 0.22, 1.4, 2.62 mg/kg, 5 rats",6.16 ng/mL
same,concentration at 1 h,"[2]; rat, plasma, oral, time 1 h, rats p.o. SPC 60 g crude drug/kg, doses of 1-4: 0.124, 0.22, 1.4, 2.62 mg/kg, 5 rats",5.77 ng/mL
same,concentration at 1.5 h,"[2]; rat, plasma, oral, time 1.5 h, rats p.o. SPC 60 g crude drug/kg, doses of 1-4: 0.124, 0.22, 1.4, 2.62 mg/kg, 5 rats",5.11 ng/mL
same,concentration at 2 h,"[2]; rat, plasma, oral, time 2 h, rats p.o. SPC 60 g crude drug/kg, doses of 1-4: 0.124, 0.22, 1.4, 2.62 mg/kg, 5 rats",2.89 ng/mL
same,concentration at 3 h,"[2]; rat, plasma, oral, time 3 h, rats p.o. SPC 60 g crude drug/kg, doses of 1-4: 0.124, 0.22, 1.4, 2.62 mg/kg, 5 rats",1.75 ng/mL
same,concentration at 4 h,"[2]; rat, plasma, oral, time 4 h, rats p.o. SPC 60 g crude drug/kg, doses of 1-4: 0.124, 0.22, 1.4, 2.62 mg/kg, 5 rats",1.46 ng/mL
same,concentration at 6 h,"[2]; rat, plasma, oral, time 6 h, rats p.o. SPC 60 g crude drug/kg, doses of 1-4: 0.124, 0.22, 1.4, 2.62 mg/kg, 5 rats",0.553 ng/mL
same,concentration at 8 h,"[2]; rat, plasma, oral, time 8 h, rats p.o. SPC 60 g crude drug/kg, doses of 1-4: 0.124, 0.22, 1.4, 2.62 mg/kg, 5 rats",0.582 ng/mL
same,concentration at 12 h,"[2]; rat, plasma, oral, time 12 h, rats p.o. SPC 60 g crude drug/kg, doses of 1-4: 0.124, 0.22, 1.4, 2.62 mg/kg, 5 rats",0.197 ng/mL
same,AUC(0-t),"[2]; rat, plasma, po, 0.124 mg/kg, compartment model parameters, DAS 2.0, rats p.o. SPC 60 g crude drug/kg, Mean, 5 rats, read-out: AUC(0-t)",19.1 ng·h/mL
same,AUC(0-inf),"[2]; rat, plasma, po, 0.124 mg/kg, compartment model parameters, DAS 2.0, rats p.o. SPC 60 g crude drug/kg, Mean, 5 rats, read-out: AUC(0-∞)",20.5 ng·h/mL
same,CL/F,"[2]; rat, plasma, po, 0.124 mg/kg, compartment model parameters, DAS 2.0, rats p.o. SPC 60 g crude drug/kg, Mean, 5 rats, read-out: CL/F (converted)",101 mL/min/kg
same,half-life,"[2]; rat, plasma, po, 0.124 mg/kg, compartment model parameters, DAS 2.0, rats p.o. SPC 60 g crude drug/kg, Mean, 5 rats, read-out: t1/2β (converted)",14.4 h
same,AUC(0-t),"[2]; rat, plasma, po, 0.124 mg/kg, statistical moment parameters, DAS 2.0, rats p.o. SPC 60 g crude drug/kg, Mean, 5 rats, read-out: AUC(0-t)",19.1 ng·h/mL
same,AUC(0-inf),"[2]; rat, plasma, po, 0.124 mg/kg, statistical moment parameters, DAS 2.0, rats p.o. SPC 60 g crude drug/kg, Mean, 5 rats, read-out: AUC(0-∞)",20 ng·h/mL
same,CL/F,"[2]; rat, plasma, po, 0.124 mg/kg, statistical moment parameters, DAS 2.0, rats p.o. SPC 60 g crude drug/kg, Mean, 5 rats, read-out: CLz/F (converted)",103 mL/min/kg
same,Cmax,"[2]; rat, plasma, po, 0.124 mg/kg, statistical moment parameters, DAS 2.0, rats p.o. SPC 60 g crude drug/kg, Mean, 5 rats, read-out: Cmax",7.18 ng/mL
same,MRT last,"[2]; rat, plasma, po, 0.124 mg/kg, statistical moment parameters, DAS 2.0, rats p.o. SPC 60 g crude drug/kg, Mean, 5 rats, read-out: MRT(0-t)",2.77 h
same,MRT inf,"[2]; rat, plasma, po, 0.124 mg/kg, statistical moment parameters, DAS 2.0, rats p.o. SPC 60 g crude drug/kg, Mean, 5 rats, read-out: MRT(0-∞)",3.44 h
same,Tmax,"[2]; rat, plasma, po, 0.124 mg/kg, statistical moment parameters, DAS 2.0, rats p.o. SPC 60 g crude drug/kg, Mean, 5 rats, read-out: Tmax",0.55 h
same,Vd/F,"[2]; rat, plasma, po, 0.124 mg/kg, statistical moment parameters, DAS 2.0, rats p.o. SPC 60 g crude drug/kg, Mean, 5 rats, read-out: Vz/F",25.9 L/kg
same,half-life,"[2]; rat, plasma, po, 0.124 mg/kg, statistical moment parameters, DAS 2.0, rats p.o. SPC 60 g crude drug/kg, Mean, 5 rats, read-out: t1/2z (converted)",2.9 h
same,AUC(0-t),"[2]; rat, plasma, po, 2.62 mg/kg, rats, p.o. SPC 60 g crude drug/kg, doses of 1-4: 0.124, 0.22, 1.42, 2.62 mg/kg, n = 5, read-out: AUC0→t Val.",19.1 ng·h/mL
same,AUC(0-inf),"[2]; rat, plasma, po, 2.62 mg/kg, rats, p.o. SPC 60 g crude drug/kg, doses of 1-4: 0.124, 0.22, 1.42, 2.62 mg/kg, n = 5, read-out: AUC0→∞ Val.",20 ng·h/mL
same,Cmax,"[2]; rat, plasma, po, 2.62 mg/kg, rats, p.o. SPC 60 g crude drug/kg, doses of 1-4: 0.124, 0.22, 1.42, 2.62 mg/kg, n = 5, read-out: Cmax Val.",7.2 ng/mL
same,Tmax,"[2]; rat, plasma, po, rats, p.o. SPC 60 g crude drug/kg, doses of 1-4: 0.124, 0.22, 1.42, 2.62 mg/kg, n = 5, read-out: Tmax Val.",0.55 h
same,Cz,[2]; [5],0.202 µg/L
same,VRT(0-t),[2]; [5],7.148 h^2
same,VRT(0-∞),[2]; [5],16.239 h^2
same,elimination rate constant,[2]; [5],0.247 h⁻¹
same,AUMC(0-t),[2]; [6],52.953
same,AUMC(0-∞),[2]; [6],68.893
same,Papp,Caco-2 cell monolayer,2.2 ×10⁻⁶ cm/s
same,AUC0→t Obs.,[3],8.4 ng·h/mL
same,AUC0→∞ Obs.,[3],9 ng·h/mL
same,Cmax Obs.,[3],3.9 ng/mL
same,Tmax Obs.,[3],0.42 h
